25 compounds from ChEMBL document CHEMBL1201862, “PubChem BioAssay data set” (2004) can be followed below.

Holding throughout (assay): NCI-60 cell line screen, 48 h
In assay [1] the test system is KM-20L2.
In assay [2] the test system is SNB-78.
In assay [3] the test system is RXF 631.
Assay [4] concerns XF498.
The test system of assay [5] is HOP-18.
In assay [6] the test system is DMS-273.
Assay [7] relates to M19-MEL.
The subject of assay [8] is LXFL 529.
Assay [9] relates to DLD-1.

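How tested: cells in 96-well plates exposed to compound for 48 hours at five concentrations. GI50: concentration for 50% inhibition of growth.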 Calls of active or inactive are those of the source. Cut-off read from the data, not from the text of the source: active = GI50 up to about 1.1 µM and inactive = higher.

Turning to `CS(=O)(=O)Nc1ccc(Nc2c3ccccc3nc3ccccc23)cc1`, the GI50 in assay [1] is 3.06 µM (inactive); in assay [2] it was 7.83 µM (inactive); in assay [3], 1.77 µM (inactive); in [4] it was 2.6 µM (inactive); in assay [5], 2.82 µM (inactive); in [6] it was 0.658 µM (active). The GI50 in assay [7] is 2.32 µM (inactive); in assay [8], 3.43 µM (inactive); in [9], 4.15 µM (inactive).

Take `CC(C)CCC[C@@H](C)C1CCC2[C@@H]3CC=C4C[C@@H](C(=O)NCCN(C)C)CC[C@]4(C)C3CC[C@@]21C` (some centres not stated): the GI50 in [1] is 83 µM (inactive); in [2], > 100 µM (inactive); in assay [4], 8.11 µM (inactive); in [5], 22.4 µM (inactive); in assay [6], 24.4 µM (inactive); in assay [7], 19.7 µM (inactive). The GI50 was 13.9 µM (inactive) in assay [8] and 36.1 µM (inactive) in assay [9].

Regarding `O=c1c(O)cccn1C1OC(CO)C(O)C1O` (configuration not stated), the GI50 in [1], in assay [2], in assay [3], in assay [5], in [6] and in assay [8] was > 100 µM (inactive) throughout. In addition, the GI50 in [9] was > 100 µM (inactive).

`N#C/C(c1nc2ccccc2[nH]1)=c1\s/c(=C/c2ccccc2)c(=O)n1-c1ccccc1`: the GI50 in assay [1] was > 100 µM (inactive); in assay [4], 60.8 µM (inactive); in assay [6], > 100 µM (inactive); in [7], > 100 µM (inactive); in assay [8], 96.2 µM (inactive); in assay [9] it was > 100 µM (inactive).

For the compound `COC(=O)C(CC(=O)Nc1ccc(C)cc1)C(=O)C(=O)Nc1ccccc1C(C)C` (configuration not stated), the GI50 in assay [1], in assay [2], in [4], in assay [5], in assay [6] and in assay [7] was > 100 µM (inactive) in each case. In addition, the GI50 in assay [8] and in assay [9] was > 100 µM (inactive) throughout.

Regarding `CC1=C(C)C(=O)C2=C(OCCCO2)C1=O`, the GI50 in assay [1] was 34.2 µM (inactive); in [3], 17.7 µM (inactive); in [7], 17.9 µM (inactive); in assay [8], 18 µM (inactive); in assay [9], > 10 µM (inactive).

`C[Si](C)(C)OC1(C#N)C2C3CC4C2C(=O)C2C4C3C21` (configuration not stated): the GI50 in [1], in assay [2], in [5], in [6], in [7] and in assay [8] was > 100 µM (inactive) each time. Further, the GI50 in assay [9] was > 100 µM (inactive).

As for `Cn1cnc([N+](=O)[O-])c1Sc1nccn1-c1ccccc1`, the GI50 in assay [1] was > 100 µM (inactive); in [2], 26.3 µM (inactive); in [4], 31.1 µM (inactive); in assay [5] it was 8.85 µM (inactive); in assay [6] it was 63.5 µM (inactive); in assay [7], 51.8 µM (inactive). Further, the GI50 in [9] is 33.3 µM (inactive).

In the case of `NC(=S)NNC(=O)/C(=C/c1ccc(/C=C(\NC(=O)c2ccccc2)C(=O)NNC(N)=S)cc1)NC(=O)c1ccccc1`, the GI50 in [1] was > 100 µM (inactive); in assay [2] it was 53.3 µM (inactive); in [4], 70 µM (inactive); in assay [5] it was > 100 µM (inactive); in assay [6] it was > 100 µM (inactive); in [7] it was 72.8 µM (inactive). Moreover, the GI50 is 80 µM (inactive) in assay [8] and > 63.7 µM (inactive) in assay [9].

On to `CCC(C)C(N)C(=O)NC(CC(N)=O)C(=O)NC(CC(C)C)C(=O)NC(CCCCN)C(=O)NC(C)C(=O)NC(CC(C)C)C(=O)NC(C)C(=O)NC(C)C(=O)NC(CC(C)C)C(=O)NC(C)C(=O)NC(CCCCN)C(=O)NC(CCCCN)C(=O)NC(C(=O)NC(CC(C)C)C(N)=O)C(C)CC` (configuration not stated), for which the GI50 in [1] is 22.5 µM (inactive); in assay [2] it was 11.3 µM (inactive); in assay [3], 7.82 µM (inactive); in [5], 7.01 µM (inactive); in assay [6], 7.43 µM (inactive); in assay [7] it was 10.1 µM (inactive). In addition, the GI50 in [8] is 14.9 µM (inactive); in assay [9], 10.4 µM (inactive).

For `CC(=O)Oc1cc(C)c2c(c1OC(C)=O)CC1(O2)[C@@H](C)CCC2[C@@]3(C)CC[C@H](OC(C)=O)C(C)(C)C3CC[C@]21C` (some centres not stated), the GI50 is 14.1 µM (inactive) in [1]; 2.24 µM (inactive) in [2]; 5.4 µM (inactive) in assay [3]; 2.64 µM (inactive) in assay [5]; 2.25 µM (inactive) in assay [6]; 2.02 µM (inactive) in [7]. Further, the GI50 in [8] was 4.62 µM (inactive); in assay [9] it was 3.42 µM (inactive).

Take `CCC(C)(C)NS(=O)(=O)c1ccccc1`: the GI50 in [1], in assay [2], in assay [4], in assay [6], in assay [7] and in [8] was > 100 µM (inactive) each time. Further, the GI50 in [9] was > 100 µM (inactive).

On to `COc1ccc(NC(=O)C(=O)C2NC(=S)NC2=O)c(OC)c1` (configuration not stated), for which the GI50 in assay [1], in assay [2], in [3], in [6], in assay [7] and in assay [8] was > 100 µM (inactive) each time. In addition, the GI50 in [9] is > 100 µM (inactive).

With `C=CCOc1cc2c(cc1C(C)c1ccc(OC)cc1)OCO2` (configuration not stated), the GI50 is 0.348 µM (active) in [1]; 1.46 µM (inactive) in assay [2]; 0.287 µM (active) in assay [4]; 0.421 µM (active) in assay [6]; 0.718 µM (active) in assay [7]; 0.718 µM (active) in assay [8]. Further, the GI50 in [9] is 0.533 µM (active).

On to `O=[N+]([O-])c1ccc(OCCNc2cccc3ccccc23)cc1`, for which the GI50 in assay [1] was > 100 µM (inactive); in assay [3], > 100 µM (inactive); in [4], > 100 µM (inactive); in assay [5] it was > 100 µM (inactive); in assay [6] it was 46.7 µM (inactive); in assay [7], > 100 µM (inactive). In addition, the GI50 in assay [8] is 33.3 µM (inactive); in [9] it was 37.9 µM (inactive).

For `N#C/N=C(\NCCc1c[nH]c2ccccc12)NCc1ccccc1`, the GI50 in assay [1] is 16.3 µM (inactive); in [2] it was > 100 µM (inactive); in assay [4], 29.6 µM (inactive); in assay [6] it was 69.2 µM (inactive); in assay [7], 81.3 µM (inactive); in assay [8], 48.2 µM (inactive). Also, in assay [9], the GI50 is 94.8 µM (inactive).

For `CN(C)C(=S)/N=c1\ss/c(=N/c2ccccc2)n1C`, the GI50 in assay [1] was > 100 µM (inactive); in assay [2] it was 32.4 µM (inactive); in assay [3] it was 44.6 µM (inactive); in assay [5], > 100 µM (inactive); in assay [6], > 100 µM (inactive); in assay [7], > 100 µM (inactive). Moreover, the GI50 in [8] and in assay [9] was > 100 µM (inactive) throughout.

Take `C[C@]12CCCC(=O)C1C[C@H](C(=O)O)CC2` (some centres not stated): the GI50 in [1], in assay [3], in [4], in assay [5], in [6] and in [7] was > 100 µM (inactive) each time. In addition, the GI50 in assay [8] and in assay [9] was > 100 µM (inactive) throughout.

For `CCOc1ccc(/C=C(\Cl)c2ccc(OC)cc2)cc1`, the GI50 in [1], in assay [2], in assay [4], in assay [5], in assay [6] and in assay [7] was > 100 µM (inactive) each time. For the same compound, the GI50 in assay [8] and in assay [9] was > 100 µM (inactive) in each case.

On to `Clc1cc(Cc2cc(Cl)c(Cl)c3c2OCOC3)c2c(c1Cl)COCO2`, for which the GI50 is > 100 µM (inactive) in assay [1]; 45.1 µM (inactive) in assay [2]; 23.8 µM (inactive) in assay [5]; 38.7 µM (inactive) in [6]; 82.8 µM (inactive) in [7]; 37.7 µM (inactive) in [8]. The GI50 in assay [9] is > 100 µM (inactive).

Take `COc1cc(Br)c(CC2=NCCc3cc(OC)c(OC)cc32)cc1OC`: the GI50 in [1] was 3.18 µM (inactive); in assay [3], 10.2 µM (inactive); in assay [5] it was 11.3 µM (inactive); in assay [6] it was 15.9 µM (inactive); in [7], 27.9 µM (inactive); in assay [8], 12.5 µM (inactive). Moreover, the GI50 in [9] is 45.4 µM (inactive).

As to `CCCCCCCC(CC(=O)NC(CO)C(=O)NC(CO)CC(C)C)OC(=O)CC(CCCCCCC)OC(=O)CC(CCCCCCC)OC1OC(C)C(O)C(OC2OC(C)C(O)C(O)C2O)C1O` (configuration not stated), the GI50 in assay [1] is 15.7 µM (inactive); in assay [2] it was 20.2 µM (inactive); in [5], 17.6 µM (inactive); in assay [6], 10.9 µM (inactive); in [7], 10.4 µM (inactive); in assay [8] it was 4.84 µM (inactive). In addition, the GI50 in [9] is 16 µM (inactive).

As to `CC(=O)OC1CC2C(C)(C)C(=O)C=C[C@]2(C)C2CCC3(C)C(c4ccoc4)C(=O)[C@H]4O[C@]43[C@]12C` (some centres not stated), the GI50 in assay [1] was > 10 µM (inactive); in assay [2], 57.8 µM (inactive); in [7], 20.4 µM (inactive); in [8], 33.7 µM (inactive); in assay [9], 13.6 µM (inactive).

For the compound `COc1ccc(-c2cc(-c3cc(C)ccc3O)nc(O)n2)cc1`, the GI50 in assay [1] was > 100 µM (inactive); in [2] it was 43.7 µM (inactive); in [3], > 100 µM (inactive); in [5], > 100 µM (inactive); in assay [6], 50.8 µM (inactive); in assay [7], > 100 µM (inactive). The values for the GI50 in [8] and in assay [9] were 64 µM (inactive) and > 100 µM (inactive), respectively.

For `O=C(CSc1nnc(Cc2ccccc2)o1)Nc1ccccc1Cl`, the GI50 in [1], in [2], in [5], in assay [6], in [7] and in assay [8] was > 100 µM (inactive) throughout. For the same compound, the GI50 in assay [9] is > 100 µM (inactive).
